Here are results for six compounds from patent publication US4359461A, “Mono-, di- and tri-adamantylcarbonyl- digalactopyranosyl- glucopyranosyl- fructofuranose sulfate salts” (American Cyanamid Company, priority 1981, dated 1982).

Where a name gives a salt, the structure may show the parent alone.

Assay [1] deals with complement activity of sera. The assay is described as follows: Guinea Pig Intraperitoneal Test (GPIP). The class given is in vivo. The settings on record: 200 mg/kg i.p. The text has this: (§1) An active inhibitor protects C2 from C1 and C4; (ii) Test Code 035 (C3-C9 inhibitor)--This test determines the ability of the late components of human complement (C3-C9) to lyse EAC 142 in the presence of appropriate dilutions of the test compound. An active inhibitor protects EAC 142 from lysis by human C3-C9; (iii) Test Code 036 (C-Shunt inhibitor)--In this test human erythrocytes rendered fragile are lysed in autologous serum via the shunt pathway activated by cobra venom factor in the presence of appropriate dilutions of the test compound. Inhibition of the shunt pathway results in failure of lysis; (iv) Cap 50 Test--Here, appropriate amounts of the test compound are added to a pool of guinea pig serum in vitro, after which the complement level is determined in undiluted serum by the serum capillary tube assay of U.S. Pat. No. 3,876,376. The concentration of compound inhibiting 50% is reported; and (v) Guinea Pig Intraperitoneal Test (GPIP)--Guinea pigs weighing about 300 g are dosed intraperitoneally (i.p.) with 200 mg/kg of the test compound dissolved in saline and adjusted to pH 7-8. Approximately […], taken by orbital sinus puncture 30 minutes and one hour after injections, are collected directly into centrifuge tubes; 5 ml blood samples, taken by decapitation 2 hours after injection, are collected directly into diSPo® beakers. The samples were allowed to clot, centrifuged, and the resultant sera were assayed for complement activity using the capilllary complement assay. Percent inhibition is calculated by comparison with simultaneous controls. The results of the GPIP appear in Table I together with results of Test Code 026, 035, 036 and Cap 50.

For the next assay, the target named is activated human C1 (Homo sapiens, UniProt P09871). The assay is described as follows: Test Code 026 (C1 inhibitor). The class given is biochemical. The settings on record: activity in wells, serial dilution assay; higher well number indicates higher activity.
From the text: as §1

Assay [2] relates to late components of human complement (C3-C9). The assay is described as follows: Test Code 035 (C3-C9 inhibitor), lysis of EAC 142. Type of assay: biochemical. The settings on record: activity in wells, serial dilution assay; higher well number indicates higher activity.
From the text: as §1

Another assay deals with shunt pathway. The assay is described as follows: Test Code 036 (C-Shunt inhibitor), lysis of human erythrocytes in autologous serum via shunt pathway activated by cobra venom factor. The settings on record: activity in wells, serial dilution assay; higher well number indicates higher activity. Type of assay: biochemical.
From the text: as §1

Turning to `O=C(OC[C@H]1O[C@H](OC[C@H]2O[C@H](OC[C@H]3O[C@H](O[C@]4(COC(=O)C56CC7CC(CC(C7)C5)C6)O[C@H](COC(=O)C56CC7CC(CC(C7)C5)C6)[C@@H](OS(=O)(=O)O)[C@@H]4OS(=O)(=O)O)[C@H](OS(=O)(=O)O)[C@@H](OS(=O)(=O)O)[C@@H]3OS(=O)(=O)O)[C@H](OS(=O)(=O)O)[C@@H](OS(=O)(=O)O)[C@H]2OS(=O)(=O)O)[C@H](OS(=O)(=O)O)[C@@H](OS(=O)(=O)O)[C@H]1OS(=O)(=O)O)C12CC3CC(CC(C3)C1)C2` [1,6-Bis-O-(1-adamantylcarbonyl)-β-D-fructofuranosyl-6-O-1-adamantylcarbonyl-O-α-D-galactopyranosyl(1→6)-O-α-D-galactopyranosyl(1→6)-α-D-glucopyranoside, undecakis(H-sulfate), undecasodium salt], the figures for the “In Vivo Activity (Guinea pig) % Inhibition Intraperitoneal” value in assay [1] (30 minutes), in assay [1] (60 minutes) and in assay [1] (120 minutes) were 11%, 12% and 72%, respectively. Also, the “C1 026 Wells” value on activated human C1 is given as “+6 Wells”. Moreover, in assay [2], the “C-Late 035 Wells” value was “+1 Wells”. For the same compound, the “C-Shunt Inhibition 036 Wells” value with shunt pathway is “+3 Wells”.
`O=C(OC[C@H]1O[C@H](OC[C@H]2O[C@H](OC[C@H]3O[C@H](O[C@]4(COS(=O)(=O)O)O[C@H](COC(=O)C56CC7CC(CC(C7)C5)C6)[C@@H](OS(=O)(=O)O)[C@@H]4OS(=O)(=O)O)[C@H](OS(=O)(=O)O)[C@@H](OS(=O)(=O)O)[C@@H]3OS(=O)(=O)O)[C@H](OS(=O)(=O)O)[C@@H](OS(=O)(=O)O)[C@H]2OS(=O)(=O)O)[C@H](OS(=O)(=O)O)[C@@H](OS(=O)(=O)O)[C@H]1OS(=O)(=O)O)C12CC3CC(CC(C3)C1)C2` [6,6'"-Di-1-adamantanecarboxylate-O--α-D-galactopyranosyl(1→6] [6,6'"-Di-1-adamantanecarboxylate-O-α-D-galactopyranosyl(1→6)-O-α-D-galactopyranosyl(1→6)-O-α-D-glucopyranosyl-β-D-fructofuranose, dodecakis(H-sulfate), dodecasalt with trimethylamine]: on activated human C1, the “C1 026 Wells” value is recorded as “+9 Wells”. For the same compound, in assay [2], the “C-Late 035 Wells” value is given as “+1 Wells”. The “C-Shunt Inhibition 036 Wells” value in the assay with shunt pathway is “+3 Wells”.
`O=C(OC[C@H]1O[C@H](OC[C@H]2O[C@H](OC[C@H]3O[C@H](O[C@]4(COS(=O)(=O)O)O[C@H](COC(=O)C56CC7CC(CC(C7)C5)C6)[C@@H](OS(=O)(=O)O)[C@@H]4OS(=O)(=O)O)[C@H](OS(=O)(=O)O)[C@@H](OS(=O)(=O)O)[C@@H]3OS(=O)(=O)O)[C@H](OS(=O)(=O)O)[C@@H](OS(=O)(=O)O)[C@H]2OS(=O)(=O)O)[C@H](OS(=O)(=O)O)[C@@H](OS(=O)(=O)O)[C@H]1OS(=O)(=O)O)C12CC3CC(CC(C3)C1)C2` [6,6'"-Di-1-admantanecarboxylate-O--α-D-galactopyranosyl(1→6)] [6,6'"-Di-1-adamantanecarboxylate-O-α-D-galactopyranosyl(1→6)-O-α-D-galactopyranosyl(1→6)-O-α-D-glucopyranosyl-β-D-fructofuranose, dodecakis(H-sulfate), dodecasodium salt]: the “In Vivo Activity (Guinea pig) % Inhibition Intraperitoneal” value is listed as 72% in assay [1] (30 minutes), 92% in assay [1] (60 minutes) and 97% in assay [1] (120 minutes). Moreover, in the assay on shunt pathway, the “C-Shunt Inhibition 036 Wells” value was “+2 Wells”.
Consider `O=C(OC[C@H]1O[C@@](COS(=O)(=O)O)(O[C@H]2O[C@H](CO[C@H]3O[C@H](CO[C@H]4O[C@H](COS(=O)(=O)O)[C@H](OS(=O)(=O)O)[C@H](OS(=O)(=O)O)[C@H]4OS(=O)(=O)O)[C@H](OS(=O)(=O)O)[C@H](OS(=O)(=O)O)[C@H]3OS(=O)(=O)O)[C@@H](OS(=O)(=O)O)[C@H](OS(=O)(=O)O)[C@H]2OS(=O)(=O)O)[C@@H](OS(=O)(=O)O)[C@@H]1OS(=O)(=O)O)C12CC3CC(CC(C3)C1)C2` [6-O-(1-Adamantylcarbonyl)-β-D-fructofuranosyl-O-α-D-galactopyranosyl(1→6)-O-α-D-galactopyranosyl(1→6)-α-D-glucopyranoside, tridecakis(H-sulfate), tridecasalt with trimethylamine], for which the “C-Shunt Inhibition 036 Wells” value in the assay with shunt pathway is reported as “+5 Wells”.
Consider `O=C(OC[C@H]1O[C@@](COS(=O)(=O)O)(O[C@H]2O[C@H](CO[C@H]3O[C@H](CO[C@H]4O[C@H](COS(=O)(=O)O)[C@H](OS(=O)(=O)O)[C@H](OS(=O)(=O)O)[C@H]4OS(=O)(=O)O)[C@H](OS(=O)(=O)O)[C@H](OS(=O)(=O)O)[C@H]3OS(=O)(=O)O)[C@@H](OS(=O)(=O)O)[C@H](OS(=O)(=O)O)[C@H]2OS(=O)(=O)O)[C@@H](OS(=O)(=O)O)[C@@H]1OS(=O)(=O)O)C12CC3CC(CC(C3)C1)C2` [6-O--(1-Adamantylcarbonyl)-β-D-fructofuranosyl-O--α-D-galact] [6-O-(1-Adamantylcarbonyl)-β-D-fructofuranosyl-O-α-D-galactopyranosyl(1→6)-O-α-D-galactopyranosyl(1→6)-α-D-glucopyranoside, tridecakis(H-sulfate), tridecasalt with trimethylamine], for which the “C1 026 Wells” value at activated human C1 is listed as “+10 Wells”.
In the case of `O=C(OC[C@H]1O[C@@](COS(=O)(=O)O)(O[C@H]2O[C@H](CO[C@H]3O[C@H](CO[C@H]4O[C@H](COS(=O)(=O)O)[C@H](OS(=O)(=O)O)[C@H](OS(=O)(=O)O)[C@H]4OS(=O)(=O)O)[C@H](OS(=O)(=O)O)[C@H](OS(=O)(=O)O)[C@H]3OS(=O)(=O)O)[C@@H](OS(=O)(=O)O)[C@H](OS(=O)(=O)O)[C@H]2OS(=O)(=O)O)[C@@H](OS(=O)(=O)O)[C@@H]1OS(=O)(=O)O)C12CC3CC(CC(C3)C1)C2` [6-O--(1-Adamantylcarbonyl)-β-D-fructofuranosyl-O--α-D-galact] [6-O-(1-Adamantylcarbonyl)-β-D-fructofuranosyl-O-α-D-galactopyranosyl(1→6)-O-α-D-galactopyranosyl(1→6)-α-D-glucopyranoside, tridecakis(H-sulfate), tridecasodium salt], the figures for the “In Vivo Activity (Guinea pig) % Inhibition Intraperitoneal” value in assay [1] (2 hours), in assay [1] (6 hours) and in assay [1] (24 hours) were 78%, 71% and 59%, respectively. Moreover, the “C-Late 035 Wells” value in assay [2] is on record as “+2 Wells”.
